Experimental data published in patent US7589219B2, “2,5-bis-diamine-[1,4]benzoquinonic derivatives, useful for the treatment of alzheimer's disease, method for preparing them and intermediates of said method” (priority 2002, dated 2009).
“Also recorded” adds a separate entry of the source. Where two headings read alike, the source gives them in different places.

Assays:
[1] = system: anti-NGF transgenic mice (AD11); test: Immunohistochemistry and neurostereology in anti-NGF transgenic mice (AD11); type: in vivo, mouse; conditions: for extracellular deposition of APP: 6 month-old AD11 mice (FIG. 19); for cholinergic deficit in the basal forebrain (number of cholinergic neurons): AD11 mice from 6 months of age for 15 days (FIG. 16); for number of cells accumulating β-amyloid protein in the hippocampus: treatment starting at 6 months of age (FIG. 20)
[2] = biological target: AChE, from human erythrocytes EC 3.1.1.7 (Homo sapiens, UniProt P22303); type: biochemical
[3] = biological target: BuChE (from human serum, EC 3.1.1.8) (Homo sapiens, UniProt P06276); test: biochemical
[4] = Total antioxidant status (Randox kit, modified), capture of oxygen radicals, ABTS colorimetric method; type: biochemical; conditions: for % inhibition (antioxidant activity): absorbance 600 nm, 3 min, pH 7.4, 37° C.
[5] = biological target: recombining human AChE (HuAChE, EC 3.1.1.7) (Homo sapiens, UniProt P22303); type: biochemical; conditions: mean of two independent measurements in triplicate
[6] = biological target: aggregation of Aβ (1-40) induced by AChE (recombining human, EC 3.1.1.7) (Homo sapiens, UniProt P22303); test: biochemical; type: biochemical
[7] = system: non transgenic mice treated with scopolamine; test: Object recognition test, amnesia induced by scopolamine in non transgenic mice; type: in vivo, mouse; conditions: per os 15 mg/kg 20 min before scopolamine 0.5 mg/kg s.c. (FIG. 14)
AD11 mice = test: Object recognition test in AD11 mice; type: in vivo, mouse
[8] = biological target: AChE (from human erythrocytes, amphiphilic form, EC 3.1.1.7) (Homo sapiens, UniProt P22303); test: biochemical; conditions: for Selectivity IC50(BuChE)/IC50 (AChE): ratio of the Table I IC50 values
[9] = AD11 mice, 15 days starting at 6 months of age (FIG. 18)
[10] = BuChE from human serum, Ellman's method, Table I, read-out: IC50 (BuChE)
[11] = BuChE from human serum, Example 50 table, mean of two independent measurements in triplicate, read-out: IC50 (BuChE)
[12] = AD11 mice aged 15 months, per os 7 mg/kg/day for 1 month, versus placebo (FIG. 11)
[13] = AD11 mice, daily from 1.5 months until 2 months of age, per os or intraperitoneal, comparison of AChE inhibitors (FIG. 15)
[14] = AChE from human erythrocytes, Ellman's method, Table I, read-out: IC50(AChE)

Sequence of BuChE (from human serum, EC 3.1.1.8) (P06276 29-602): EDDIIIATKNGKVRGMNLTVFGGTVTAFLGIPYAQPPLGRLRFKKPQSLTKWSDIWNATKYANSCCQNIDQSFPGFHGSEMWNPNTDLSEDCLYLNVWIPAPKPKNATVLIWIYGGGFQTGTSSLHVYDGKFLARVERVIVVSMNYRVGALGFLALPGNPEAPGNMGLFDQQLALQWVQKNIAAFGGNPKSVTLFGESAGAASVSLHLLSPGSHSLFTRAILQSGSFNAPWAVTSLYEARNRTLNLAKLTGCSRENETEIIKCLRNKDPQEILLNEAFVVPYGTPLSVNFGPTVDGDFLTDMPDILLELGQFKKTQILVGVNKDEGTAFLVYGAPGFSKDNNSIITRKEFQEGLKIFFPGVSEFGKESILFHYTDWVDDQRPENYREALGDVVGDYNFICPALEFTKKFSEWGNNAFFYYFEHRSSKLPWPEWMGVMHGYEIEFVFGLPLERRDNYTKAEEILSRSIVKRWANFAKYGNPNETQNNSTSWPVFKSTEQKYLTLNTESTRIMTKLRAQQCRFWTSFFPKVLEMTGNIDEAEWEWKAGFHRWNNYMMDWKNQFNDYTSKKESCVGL
Sequence of recombining human AChE (HuAChE, EC 3.1.1.7) (P22303 32-614): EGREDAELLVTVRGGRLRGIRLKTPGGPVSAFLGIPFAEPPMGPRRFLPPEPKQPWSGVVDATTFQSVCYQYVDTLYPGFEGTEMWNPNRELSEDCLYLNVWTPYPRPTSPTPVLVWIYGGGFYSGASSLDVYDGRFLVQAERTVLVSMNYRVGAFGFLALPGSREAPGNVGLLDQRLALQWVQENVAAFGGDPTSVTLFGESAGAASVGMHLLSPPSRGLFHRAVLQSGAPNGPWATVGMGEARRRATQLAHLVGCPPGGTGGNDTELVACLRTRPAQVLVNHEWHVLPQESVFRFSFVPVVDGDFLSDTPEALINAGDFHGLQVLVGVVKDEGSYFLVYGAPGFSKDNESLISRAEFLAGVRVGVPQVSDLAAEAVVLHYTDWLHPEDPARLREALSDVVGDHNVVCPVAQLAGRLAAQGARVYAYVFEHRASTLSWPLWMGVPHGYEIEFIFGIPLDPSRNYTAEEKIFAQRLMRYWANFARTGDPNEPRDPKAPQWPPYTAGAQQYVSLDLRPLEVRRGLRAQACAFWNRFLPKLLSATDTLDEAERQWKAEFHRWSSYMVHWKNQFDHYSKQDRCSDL
Sequence of AChE (from human erythrocytes, amphiphilic form, EC 3.1.1.7) (P22303 32-617 isoform P22303-2 limits assumed): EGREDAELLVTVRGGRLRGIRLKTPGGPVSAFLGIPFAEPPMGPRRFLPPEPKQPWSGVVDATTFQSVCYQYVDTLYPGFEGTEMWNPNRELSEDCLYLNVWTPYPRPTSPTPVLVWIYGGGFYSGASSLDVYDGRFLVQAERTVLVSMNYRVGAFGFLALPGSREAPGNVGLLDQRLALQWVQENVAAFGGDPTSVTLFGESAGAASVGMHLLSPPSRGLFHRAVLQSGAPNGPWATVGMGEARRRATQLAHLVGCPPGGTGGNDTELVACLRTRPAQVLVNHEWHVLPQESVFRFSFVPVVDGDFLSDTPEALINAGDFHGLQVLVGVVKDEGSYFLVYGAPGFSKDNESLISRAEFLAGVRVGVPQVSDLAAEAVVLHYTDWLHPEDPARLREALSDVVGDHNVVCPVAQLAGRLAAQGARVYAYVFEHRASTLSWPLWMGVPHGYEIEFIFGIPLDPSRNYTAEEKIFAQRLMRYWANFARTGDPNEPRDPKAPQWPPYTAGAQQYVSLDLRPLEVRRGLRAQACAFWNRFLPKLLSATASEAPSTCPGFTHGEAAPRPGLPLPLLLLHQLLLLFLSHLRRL
Sequence of aggregation of Aβ (1-40) induced by AChE (recombining human, EC 3.1.1.7) (P22303 32-614): as the sequence (P22303 32-614) above
Sequence of AChE, from human erythrocytes EC 3.1.1.7 (P22303 32-617 isoform P22303-2 limits assumed): as the sequence (P22303 32-617 isoform P22303-2 limits assumed) above

COc1ccccc1CN(C)CCCCCC(=O)N(C)CCCCCCCCN(C)C(=O)CCCCCN(C)Cc1ccccc1OC [Caproctamine, reference compound]
extracellular deposition of APP [1]: ineffective | cholinergic deficit in the basal forebrain (number of cholinergic neurons) [1]: had no effect on the number of cholinergic neurons | number of neurons labelled with antibodies against phospho-tau (entorhinal cortex) [1, 9]: ineffective | number of cells accumulating β-amyloid protein in the hippocampus ([1]; AD11 mice): ineffective

CCN(CCCCCCNC1=CC(=O)C(NCCCCCCN(CC)Cc2ccccc2OC)=CC1=O)Cc1ccccc1OC [Compound XVI, 2,5-Bis-{6-[ethyl-(2-methoxy-benzyl)-amino]-hexylamino}-[1,4]benzoquinone]
type of inhibition ([2]; Lineweaver-Burk analysis (FIG. 1)): competitive inhibitor of a mixed type | Ki ([2]; acetylthiocholine 111-550 μM, Lineweaver-Burk, intercept of the gradient plot): 2.6 nM | IC50 [3, 10]: 1440 ± 100 nM | IC50 [3, 11]: 1440 ± 100 nM | IC50 ([3]; approximate, corresponds to the Table I IC50, read-out: pIC50(BChE) (converted)): ~1450 nM | % inhibition (antioxidant activity) ([4]; concentration 170 μM, with human serum albumin 25 μM): 44.1 ± 3.7% | antioxidant power, times lower than Trolox ([4]; oxidated quinonic form tested): about 6 times | IC50 [5]: 1.55 ± 0.11 nM | IC50 ([6]; read-out: concentration able to reduce the signal of fluorescence by 50% (IC50, AChE-induced Aβ aggregation), Aβ 230 μM, AChE 2.3 μM, thioflavine T fluorescence): 28300 ± 300 nM | amnesia induced by scopolamine, object recognition test [7]: did not show any signs of amnesia | behavioural deficit, object recognition test (discrimination index) (AD11 mice; AD11 mice at 6 months, 15 mg/kg/day per os for 15 days (FIGS. 12, 21), 15 mg/kg/day): improvement of the deficit; also recorded: marked amelioration of the behavioural deficit | behavioural deficit, object recognition test (discrimination index) (AD11 mice; AD11 mice at 12 months, 15 mg/kg/day per os for 15 days (FIG. 13)): improvement of the deficit | extracellular deposition of APP [1]: reduced the extracellular deposition of APP | number of cholinergic neurons in the basal forebrain ([1]; AD11 mice aged 15 months, per os 7 mg/kg/day for 1 month (FIG. 9)): improvement in the number of cholinergic neurons | intracellular accumulation of hyperphosphorylated tau ([1]; AD11 mice aged 15 months, per os 7 mg/kg/day for 1 month, versus placebo (FIG. 10)): decreased | number of cells associated with plaques [1, 12]: lower than that in placebo-treated mice | number of β-amyloid plaques [1, 12]: decrease in the number of β-amyloid plaques | cholinergic deficit in the basal forebrain (number of cholinergic neurons) [1]: able to rescue the cholinergic deficit | APP deposition in the cerebral vessels ([1]; AD11 mice of 2 months, 7 mg/kg intraperitoneal daily for 15 days (FIG. 7)): able to reduce markedly the cerebrovascular deposition of APP | tau hyperphosphorylation in the cortex ([1]; AD11 mice of 2 months, 7 mg/kg intraperitoneal daily for 15 days (FIG. 8)): partly prevented | cholinergic neurons in the basal nucleus of Meynert ([1]; AD11 mice, 7 mg/kg intraperitoneal daily for 15 days from age 1.5 to 2 months (FIG. 6)): efficacious in preventing the loss of cholinergic neurons | ChAT positive cholinergic neurons in the basal forebrain ([1]; AD11 mice, 7 mg/kg intraperitoneal daily for 15 days from age 1.5 to 2 months (FIGS. 4, 5)): able to prevent the cholinergic deficit in the basal forebrain | number of neurons labelled with antibodies against phospho-tau (entorhinal cortex) ([1]; AD11 mice, 15 days starting at 1.5 months of age (FIG. 17)): reduced the number of neurons labelled with antibodies against phospho-tau | number of neurons labelled with antibodies against phospho-tau (entorhinal cortex) [1, 9]: reduced the number of neurons labelled with antibodies against phospho-tau | number of cholinergic neurons in the basal forebrain [1, 13]: prevented the decrease of the number of cholinergic neurons | number of cells accumulating β-amyloid protein in the hippocampus ([1]; AD11 mice): able to reduce the number of cells accumulating β-amyloid protein | IC50 [8, 14]: 2.39 ± 0.14 nM | Selectivity IC50(BuChE)/IC50 (AChE) [8]: 602

CCN(CCCCCCCNC1=CC(=O)C(NCCCCCCCN(CC)Cc2ccccc2OC)=CC1=O)Cc1ccccc1OC [IL, 2,5-bis-{7-[ethyl-(2-methoxy-benzyl)-amino]-heptylamino}-[1,4]benzoquinone]
IC50 [3, 11]: 1250 ± 250 nM | IC50 [5]: 7.79 ± 0.37 nM

COc1ccccc1CNCCCCCCNC1=CC(=O)C(NCCCCCCNCc2ccccc2OC)=CC1=O [LI, 2,5-bis-[6-(2-methoxy-benzylamino)-hexylamino]-[1,4]-benzoquinone]
IC50 [3, 11]: 3230 ± 150 nM | IC50 [5]: 123 ± 20 nM

COc1ccccc1CN(C)CCCCCCNC1=CC(=O)C(NCCCCCCN(C)Cc2ccccc2OC)=CC1=O [LIV, 2,5-bis-{6-[(2-methoxy-benzyl)-methylamino]-hexylamino}-[1,4]-benzoquinone]
IC50 [3, 11]: 5110 ± 410 nM | IC50 [5]: 77.8 ± 4.3 nM

CCN(CCCCCCNC1=C(C)C(=O)C(NCCCCCCN(CC)Cc2ccccc2OC)=C(C)C1=O)Cc1ccccc1OC [LV, 2,5-bis-{6-[ethyl-(2-methoxy-benzyl)-amino]-hexylamino}-3,6-dimethyl-[1,4]-benzoquinone]
IC50 [3, 11]: 462 ± 2 nM | IC50 [5]: 9.5 ± 0.23 nM

Nc1c2c(nc3ccccc13)CCCC2 [Tacrine, reference compound]
number of cholinergic neurons in the basal forebrain [1, 13]: aggravated the cholinergic deficit

Cc1c(C)c2c(c(C)c1O)CCC(C)(C(=O)O)O2 (centres unmarked) [Trolox, 6-hydroxy-2,5,7,8-tetramethylchroman-2-carboxylic acid, reference compound]
% inhibition (antioxidant activity) ([4]; concentration 27 μM): 57.6 ± 0.9%

CCN(CCCNC1=CC(=O)C(NCCCN(CC)Cc2ccccc2OC)=CC1=O)Cc1ccccc1OC [XII, 2,5-Bis-{3-[ethyl-(2-methoxy-benzyl)-amino]-propylamino}-[1,4]benzoquinone]
IC50 [3, 10]: 4490 ± 340 nM | IC50 [5]: 2.25 ± 0.21 nM | inhibition at 100 µM ([6]; concentration of 100 μM): ~90% | IC50 [8, 14]: 3.19 ± 0.15 nM | IC50 ([8]; approximate, corresponds to the Table I IC50, read-out: pIC50(AChE) (converted)): ~3.24 nM | Selectivity IC50(BuChE)/IC50 (AChE) [8]: 1407

CCN(CCCCCCNC1=CC(=O)C(NCCCCCCN(CC)Cc2ccco2)=CC1=O)Cc1ccco1 [XLI, 2,5-bis-[6-(ethyl-furan-2-ilmethyl-amino)-hexylamino]-[1,4]benzoquinone]
IC50 [3, 11]: 3510 ± 180 nM | IC50 [5]: 144 ± 3 nM

CCN(CCNC1=CC(=O)C(NCCN(CC)Cc2ccccc2OC)=CC1=O)Cc1ccccc1OC [XLV, 2,5-bis-{2-[ethyl-(2-methoxy-benzyl)-amino]-ethylamino}-[1,4]benzoquinone]
IC50 [3, 11]: 16800 ± 1100 nM | IC50 [5]: 61.5 ± 1.3 nM

CCN(CCCCCCNC1=CC(=O)C(NCCCCCCN(CC)Cc2ccccc2)=CC1=O)Cc1ccccc1 [XVII, 2,5-Bis-[6-(benzyl-ethyl-amino)-hexylamino]-[1,4]benzoquinone]
IC50 [3, 11]: 645 ± 33 nM | IC50 [5]: 73.3 ± 3.2 nM

CCN(CCCCCCNC1=CC(=O)C(NCCCCCCN(CC)Cc2ccccc2Cl)=CC1=O)Cc1ccccc1Cl [XVIII, 2,5-Bis-{6-[ethyl-(2-chloro-benzyl)-amino]-hexylamino}-[1,4]benzoquinone]
IC50 [3, 11]: 45100 ± 1000 nM | IC50 [5]: 593 ± 51 nM

CCN(CCCCCCNC1=CC(=O)C(NCCCCCCN(CC)Cc2ccccc2[N+](=O)[O-])=CC1=O)Cc1ccccc1[N+](=O)[O-] [XXIX, 2,5-bis-{6-[ethyl-(2-nitro-benzyl)-amino]-hexylamino}-[1,4]benzoquinone]
IC50 [3]: 36500 ± 8800 nM | IC50 [5]: 2310 ± 130 nM

CCN(CCCCCCNC1=CC(=O)C(NCCCCCCN(CC)Cc2cccc(OC)c2)=CC1=O)Cc1cccc(OC)c1 [XXXIII, 2,5-bis-{6-[ethyl-(3-methoxy-benzyl)-amino]-hexylamino}-[1,4]benzoquinone]
IC50 [3, 11]: 2170 ± 70 nM | IC50 [5]: 13.8 ± 1.7 nM

CCN(CCCCCCNC1=CC(=O)C(NCCCCCCN(CC)Cc2ccc(OC)cc2)=CC1=O)Cc1ccc(OC)cc1 [XXXVII, 2,5-bis-{6-[ethyl-(4-methoxy-benzyl)-amino]-hexylamino}-[1,4]benzoquinone]
IC50 [3, 11]: 2420 ± 940 nM | IC50 [5]: 51.1 ± 1 nM
